Results taken from patent US7705203B2, “Benzoate inductible promoters” (Purdue Research Foundation, priority 2002, dated 2010).
“Also recorded” adds a separate entry of the source.

What was measured:
bphA gene promoter = test: bphA promoter-GFP fusions, benzoic acid-dependent GFP expression; format: cell-based, Aspergillus nidulans strain GR5; details: 8 mM benzoic acid, 5 hours; full promoter (1.8 kbp) and FR6 (0.4 kbp)
Experimental: In order to determine the minimal promoter length capable of retaining benzoic acid inducibility, promoter fusions to the Green Fluorescent Protein (GFP) gene were prepared. The full bphA promoter and shorter versions of it were PCR amplified using primers BPHPFwd (5′-[…]-3′, SEQ ID NO:19), BPHFR6 (5′-[…]-3′, SEQ ID NO:20), BPH331 (5′-[…]-3′, SEQ ID NO:21), and BPHPRev (5′-[…]-3′, SEQ ID NO:22). These primers introduced HindIII restriction sites (underlined) at both ends, which allowed cloning of the fragments upstream of the GFP gene contained within the pEBFP vector (Clontech, Palo Alto, Calif.).
The promoter-GFP fusions were called pBPH-1847-GFP, pBPH-531-GFP, and pBPH331-GFP, respectively. The selectable marker Pyr4 gene from Neurospora crassa, driven by its own promoter, was used to select putative A. nidulans transformed clones. The selectable marker was PCR-amplified from the pBS-Pyr4 vector using primers PyrEcoF (5′-[…]-3′, SEQ ID NO:23), and PyrEcoR (5′-[…]-3′, SEQ ID NO:24), which introduced EcoRI restriction sites (underlined) on both ends of the product. […]
Aspergillus nidulans GR5 protoplasts were prepared according to Aramayo and Timberlake ((1993) EMBO J. 12: 2039-2048), with some modifications. […] Concentration of protoplasts was determined using a hemacytometer, and adjusted to 10^8 protoplasts per mL. […]

GAD1 and GAD11 genes = test: RT-PCR expression of GAD1 and GAD11 genes in response to benzoic acid; format: cell-based, A. niger; details: 8 mM benzoic acid for 5 h
Experimental: Total RNA was extracted from uninduced and benzoic acid-induced A. niger mycelia as described earlier, and approximately 1 μg was used to synthesize first strand cDNAs with the SuperScript First-strand Synthesis System for RT-PCR (Invitrogen, Carlsbad, Calif.). The reaction was carried out in the presence of 0.5 μg of an oligo(dT) primer, 0.5 mM dNTP mix, 5 mM MgCl2, 10 mM DTT, 1× RT buffer (20 mM Tris.HCl pH 8.4, 50 mM KCl), RNAseOUT™ RNAse inhibitor, and 50 U of SuperScript™ II Reverse Transcriptase. Tubes were incubated at 42° C. for 50 min, after which the reaction was terminated at 70° C. for 15 min. RNAse H was added, and tubes were incubated for an additional 20 min at 37° C. Double-stranded cDNAs were amplified by PCR using Red Taq DNA Polymerase (Sigma-Aldrich, St. Louis, Mo.), dNTP's, and gene specific primers: GAD1F (5′-[…]-3′, SEQ ID NO:30), GAD1R (5′-[…]-3′, SEQ ID NO:31), GAD11F (5′-[…]-3′, SEQ ID NO:32), and GAD11R (5′-[…]-3′, SEQ ID NO:33). PCR amplification consisted of a denaturation step at 94° C. for 5 min, followed by 30 cycles, each of denaturation at 94° C. for 45 sec, annealing at 56° C. for 30 sec, and extension at 72° C. for 1 min. A final extension step at 72° C. for 10 min was also included. Amplified cDNAs were separated on a 0.8% agarose gel containing EtBr, and bands were visualized under UV light.

bzuA = test: RNA blots of bzuA expression; format: cell-based, A. nidulans; details: benzoic acid in the media
From the text: On the other hand, while N. crassa also contains a bphA homolog, there is no current information available as to its response to benzoic acid.

## O=C(O)c1ccccc1 [benzoic acid]
bphA gene promoter
  GFP expression from bphA promoter-GFP fusions: able to induce GFP expression only in the presence of the inducer
GAD1 and GAD11 genes
  expression of GAD1: expressed constitutively; also recorded: constitutive
  expression of GAD11: slightly downregulated; also recorded: slightly down-regulated
bzuA
  expression of bzuA: upregulated
